The target in data set [1] is T1, Solute carrier family 15 member 1 (Oryctolagus cuniculus, UniProt P36836).
T1 sequence (P36836 whole entry): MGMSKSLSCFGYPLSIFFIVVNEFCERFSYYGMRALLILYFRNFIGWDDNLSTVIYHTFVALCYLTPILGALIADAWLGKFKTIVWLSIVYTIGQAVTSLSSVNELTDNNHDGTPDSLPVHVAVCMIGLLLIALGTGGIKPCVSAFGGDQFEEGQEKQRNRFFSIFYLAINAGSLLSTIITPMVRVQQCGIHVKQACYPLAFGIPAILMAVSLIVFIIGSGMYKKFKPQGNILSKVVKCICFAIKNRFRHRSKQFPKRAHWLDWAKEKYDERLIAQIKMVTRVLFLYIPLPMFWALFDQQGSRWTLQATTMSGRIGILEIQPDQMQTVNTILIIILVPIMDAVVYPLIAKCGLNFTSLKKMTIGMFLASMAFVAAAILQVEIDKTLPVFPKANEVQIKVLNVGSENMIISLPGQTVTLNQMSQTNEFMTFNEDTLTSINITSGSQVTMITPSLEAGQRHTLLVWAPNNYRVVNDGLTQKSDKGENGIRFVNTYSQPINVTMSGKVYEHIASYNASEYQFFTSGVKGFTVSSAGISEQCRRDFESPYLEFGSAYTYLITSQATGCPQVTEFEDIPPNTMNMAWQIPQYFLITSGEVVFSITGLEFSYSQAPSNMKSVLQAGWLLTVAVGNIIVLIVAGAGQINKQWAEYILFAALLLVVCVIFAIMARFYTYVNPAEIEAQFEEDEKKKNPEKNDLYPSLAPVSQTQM
The data set can be described thus: Inhibition of [3H]-D-Phe-L-Gln uptake at rabbit PepT1 expressed in Xenopus laevis oocytes at pH 5.5 measured after 1 hr by scintillation counting method. It is filed as cell-based.

Data set [2] has as its target T1, Solute carrier family 15 member 1. The data set can be described thus: Substrate activity at rabbit PepT1 expressed in Xenopus laevis oocytes assessed as drug transportation across membrane under holding potential at -30 mV at 2 mM by two electrode voltage-clamp method. The format is ADME, cell-based. The note with it: 2000 µM.

In ChEMBL document CHEMBL3817804 (Medchemcomm, 2016) one finds Ki and Activity data, which are given here for one molecule.

`C/C=C/C[C@H](C)[C@@H](OC(=O)CNC(=O)C[C@@H](NC(=S)[C@H](C)N)C(=O)O)[C@@H]1C(=O)N[C@@H](CC)C(=O)N(C)CC(=O)N(C)[C@H](CC(C)C)C(=O)N[C@H](C(C)C)C(=O)N(C)[C@H](CC(C)C)C(=O)N[C@H](C)C(=O)N[C@H](C)C(=O)N(C)[C@H](CC(C)C)C(=O)N(C)[C@H](CC(C)C)C(=O)N(C)[C@H](C(C)C)C(=O)N1C` displayed a Ki in data set [1] of 1110 µM. Also, the Activity in data set [2] stood at 322 nA.

What is called Ki is the dissociation constant of the complex between target and ligand, obtained from inhibition or displacement. A higher Ki goes with a looser hold on the target.
